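Assay format: 96-well plates, 48-hour exposure. TGI marks complete inhibition of growth.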
Key:
Experiment in all cases: growth of human tumour cells (NCI), 48 h
[1] = test system: LOX IMVI melanoma
[2] = test system: MALME-3M melanoma
[3] = test system: NCI-H522 lung
[4] = test system: NCI-H460 lung
[5] = test system: SNB-75 CNS
[6] = test system: HOP-62 NSCLC
[7] = test system: SK-MEL-5 melanoma
[8] = test system: M14 melanoma
[9] = test system: CCRF-CEM leukemia
[10] = test system: LXFL 529 NSCLC
[11] = test system: SR leukemia
[12] = test system: DLD-1 colon
[13] = test system: OVCAR-3 ovarian
[14] = test system: KM20L2 colon
[15] = test system: UACC-62 melanoma
[16] = test system: M19-MEL melanoma
[17] = test system: UO-31 renal
[18] = test system: HOP-92 NSCLC
[19] = test system: SNB-78 CNS
[20] = test system: UACC-257 melanoma
[21] = test system: OVCAR-5 ovarian
[22] = test system: HL-60(TB) leukemia
[23] = test system: SW-620 colon
[24] = test system: SF-295 CNS
[25] = test system: XF 498 CNS
[26] = test system: IGROV1 ovarian
[27] = test system: K-562 leukemia
[28] = test system: RXF 393 renal
[29] = test system: HCT-15 colon
[30] = test system: KM12 colon
[31] = test system: EKVX NSCLC
[32] = test system: SK-MEL-2 melanoma
[33] = test system: TK-10 renal
[34] = test system: OVCAR-4 ovarian
[35] = test system: A549 NSCLC
[36] = test system: SK-MEL-28 melanoma
[37] = test system: SN12C renal
[38] = test system: U251 CNS
[39] = test system: ACHN renal
[40] = test system: OVCAR-8 ovarian
[41] = test system: HCC-2998 colon
[42] = test system: SF-539 CNS
[43] = test system: SK-OV-3 ovarian
[44] = test system: HT29 colon
[45] = test system: NCI-H23 lung
[46] = test system: MOLT-4 leukemia
[47] = test system: HCT-116 colon
[48] = test system: MDA-N
[49] = test system: MDA-MB-231 breast
[50] = test system: A498 renal
[51] = test system: NCI/ADR-RES ovarian
[52] = test system: SNB-19 CNS
[53] = test system: NCI-H226 lung
[54] = test system: T-47D breast
[55] = test system: MDA-MB-435
[56] = test system: DU-145 prostate
[57] = test system: BT-549 breast
[58] = test system: 786-0 renal
[59] = test system: MCF7 breast
[60] = test system: SF-268 CNS
[61] = test system: PC-3 prostate
[62] = test system: HS 578T breast
[63] = test system: COLO 205 colon
[64] = test system: RPMI-8226 leukemia
[65] = test system: CAKI-1 renal
[66] = test system: DMS 114 small cell lung

Measured: TGI

CC(C)NC(=O)OCc1nnn2c1CCC2
not listed: [48] | [49] | [50] | [51] | [52] | [53] | [54] | [55] | [56] | [57] | [58] | [59] | [60] | [61] | [62] | [63] | [64] | [65] | [66]
> 100 µM: all other assays above

COc1cccc(C2c3cc4c(cc3OC(NNC(N)=O)C2C)OCO4)c1O (stereo not given)
0.653 µM: [48]
> 69.3 µM: [58]
6.55 µM: [42]
> 69.6 µM: [36]
4 µM: [22]
> 44.4 µM: [39]
> 50.8 µM: [62]
8.54 µM: [7]
> 69.4 µM: [5]
42.4 µM: [50]
> 50.9 µM: [31]
9.05 µM: [63]
> 23 µM: [44]
10.9 µM: [3]
14 µM: [24]
> 26.4 µM: [4]
> 77.9 µM: [65]
> 79.2 µM: [30]
44.2 µM: [32]
9.4 µM: [53]
0.523 µM: [55]
> 19.8 µM: [11]
> 38.9 µM: [47]
> 59.8 µM: [49]
51.8 µM: [18]
34.3 µM: [28] | [38]
> 72.2 µM: [60]
54 µM: [6]
35.4 µM: [41]
23.6 µM: [8]
> 39.8 µM: [35]
> 67.7 µM: [2]
> 75.3 µM: [17]
29.6 µM: [13]
> 75.5 µM: [33]
> 33.8 µM: [40]
not listed: [10] | [12] | [14] | [16] | [19] | [25] | [66]
> 100 µM: all other assays above

O=c1ccc2c(Cl)cccc2o1
not listed: [10] | [12] | [14] | [16] | [19] | [25] | [29] | [43] | [44] | [58] | [66]
> 100 µM: all other assays above

COc1cc(/C=N/N=C(\N)NO)ccc1O
90.3 µM: [21]
85.9 µM: [53]
not listed: [5] | [6] | [8] | [11] | [13] | [14] | [16] | [22] | [25] | [33] | [41] | [48] | [49] | [51] | [54] | [55] | [56] | [57] | [58] | [59] | [61] | [62]
> 100 µM: all other assays above

From PubChem BioAssay (NCI)
